Results reported in patent US11643385B2, “Polymorphic forms of RAD1901-2HCl” (RADIUS PHARMACEUTICALS, INC., priority 2018, dated 2023).
Marks after values point to notes of the source that are not given here.

Assay: Solubility assessment and polymorph screen on amorphous RAD1901-2HCl
Assay type: physicochemical
Details: after maturation at 50° C./RT
Method: In a scale-up preparation of amorphous RAD1901-2HCl, RAD1901-2HCl (600 mg) was dissolved in water (20 vol., 12 mL) and filtered to remove any remaining solid particles. The solution was then aliquoted into 24 HPLC vials, frozen in a dry ice/acetone bath and the solvent removed by lyophilisation. Solids produced by lyophilization were used directly in solubility assessment and polymorph screens in Example 4.
Amorphous RAD1901-2HCl prepared as described in Example 3B was used directly in solubility assessment and polymorph screens (Table 15). XRPD patterns were further obtained for amorphous RAD1901-2HCl prepared using other solvents.
In the polymorph screen of the amorphous RAD1901-2HCl prepared as described in Example 3B, an aliquot of each sample was examined for its morphology under the microscope, both after maturing at 25° C., and after maturing at 50° C./RT. […] In some instances, the sample appeared to be a mixture of various polymorphic forms, e.g. Form 2 and Form 3 (FIGS. 18B-18C), similar to the mixture of Forms 2 and 3 in Sample 2 having an equilibrium between the two solid forms, depending on the prevailing RH.

| Structure (SMILES) | XRPD post 50° C./RT (form) |
| --- | --- |
| CCNCCc1ccc(CN(CC)c2cc(OC)ccc2[C@@H]2CCc3cc(O)ccc3C2)cc1.Cl.Cl [Form B1.] | Amorphous |
| CCNCCc1ccc(CN(CC)c2cc(OC)ccc2[C@@H]2CCc3cc(O)ccc3C2)cc1.Cl.Cl [Form B2.] | Form 2/3 |
| CCNCCc1ccc(CN(CC)c2cc(OC)ccc2[C@@H]2CCc3cc(O)ccc3C2)cc1.Cl.Cl [Form B3.] | Form 2/3 |
| CCNCCc1ccc(CN(CC)c2cc(OC)ccc2[C@@H]2CCc3cc(O)ccc3C2)cc1.Cl.Cl [Form B4.] | Form 2/3 |

Same assay, conditions: amorphous RAD1901-2HCl; 10 vol. solvent (solvent per sample ID)

| Structure (SMILES) | Solubility observation at 10 vol. |
| --- | --- |
| CCNCCc1ccc(CN(CC)c2cc(OC)ccc2[C@@H]2CCc3cc(O)ccc3C2)cc1.Cl.Cl [Form B1.] | X (X = suspension) |
| CCNCCc1ccc(CN(CC)c2cc(OC)ccc2[C@@H]2CCc3cc(O)ccc3C2)cc1.Cl.Cl [Form B3.] | X (X = suspension) |
| CCNCCc1ccc(CN(CC)c2cc(OC)ccc2[C@@H]2CCc3cc(O)ccc3C2)cc1.Cl.Cl [Form B4.] | X (X = suspension) |

Assay: Solubility assessment and polymorph screen on Sample 1 (Form 1) of RAD1901-2HCl in 24 solvent systems
Assay type: physicochemical
Details: 25 mg Sample 1; 10 vol. solvent (solvent per sample ID); stirred 25° C., shaken 50° C.
Method: Solubility assessment was carried out on the Sample 1 of RAD1901-2HCl (majorly Form 1 shown by XRPD) in 24 solvent systems in HPLC vials (sample IDs: A1 to A24). RAD1901-2HCl (25 mg) was treated with increasing volumes of solvent until the material fully dissolved or until a maximum of 60 vol had been used (Table 13).
After each addition of solvent, the system was stirred for 5 to 10 minutes at 25° C., then shaken at 50° C. for 5 to 10 minutes, and observations made. Samples were allowed to stand at room temperature for 5 min before the addition of a new aliquot of solvent. After the assessment was completed, the suspensions obtained were matured (maturation) and the clear solutions were cooled (cooling) and slowly evaporated (evaporation) as described below. All solids recovered from maturation, cooling and evaporation experiments were analyzed by high resolution XRPD.
The suspensions obtained during the solubility assessment were matured by shaken in a maturation chamber between 50° C. and RT (8 hr per cycle) for up to 5 days. Then the mixture was allowed to stand at room temperature for 10 minutes. The resulting solids were filtered and air dried and analyzed by XRPD. The clear solutions obtained during maturation were evaporated in ambient conditions and the resulting residues were analyzed by XRPD.
The clear solutions obtained during the course of the solubility assessment were cooled on a Polar Bear device from 50° C. to 5° C. at 0.1° C./min. Solids obtained upon cooling were recovered from the vials, air dried and analyzed by XRPD. If no solid was obtained, the solutions were evaporated slowly through a needle inserted into the septum cap of the vial until a solid appeared at ambient conditions and the resulting solids were filtered, air dried and analyzed by XRPD.

| Structure (SMILES) | Solubility observation at 10 vol. |
| --- | --- |
| CCNCCc1ccc(CN(CC)c2cc(OC)ccc2[C@@H]2CCc3cc(O)ccc3C2)cc1.Cl.Cl [Form A1] | X (X = suspension) |
| CCNCCc1ccc(CN(CC)c2cc(OC)ccc2[C@@H]2CCc3cc(O)ccc3C2)cc1.Cl.Cl [Form A2] | X (X = suspension) |
| CCNCCc1ccc(CN(CC)c2cc(OC)ccc2[C@@H]2CCc3cc(O)ccc3C2)cc1.Cl.Cl [Form A3] | X (X = suspension) |
| CCNCCc1ccc(CN(CC)c2cc(OC)ccc2[C@@H]2CCc3cc(O)ccc3C2)cc1.Cl.Cl [Form A4] | X (X = suspension) |
| CCNCCc1ccc(CN(CC)c2cc(OC)ccc2[C@@H]2CCc3cc(O)ccc3C2)cc1.Cl.Cl [Form A5] | X (X = suspension) |
| CCNCCc1ccc(CN(CC)c2cc(OC)ccc2[C@@H]2CCc3cc(O)ccc3C2)cc1.Cl.Cl [Form A6] | X (X = suspension) |
| CCNCCc1ccc(CN(CC)c2cc(OC)ccc2[C@@H]2CCc3cc(O)ccc3C2)cc1.Cl.Cl [Form A7] | X (X = suspension) |
| CCNCCc1ccc(CN(CC)c2cc(OC)ccc2[C@@H]2CCc3cc(O)ccc3C2)cc1.Cl.Cl [Form A8] | X (X = suspension) |

Same assay, conditions: 20 vol. solvent (solvent per sample ID)

| Structure (SMILES) | Solubility observation at 20 vol. |
| --- | --- |
| CCNCCc1ccc(CN(CC)c2cc(OC)ccc2[C@@H]2CCc3cc(O)ccc3C2)cc1.Cl.Cl [Form A1] | X (X = suspension) |
| CCNCCc1ccc(CN(CC)c2cc(OC)ccc2[C@@H]2CCc3cc(O)ccc3C2)cc1.Cl.Cl [Form A2] | X (X = suspension) |
| CCNCCc1ccc(CN(CC)c2cc(OC)ccc2[C@@H]2CCc3cc(O)ccc3C2)cc1.Cl.Cl [Form A3] | X (X = suspension) |
| CCNCCc1ccc(CN(CC)c2cc(OC)ccc2[C@@H]2CCc3cc(O)ccc3C2)cc1.Cl.Cl [Form A4] | X (X = suspension) |
| CCNCCc1ccc(CN(CC)c2cc(OC)ccc2[C@@H]2CCc3cc(O)ccc3C2)cc1.Cl.Cl [Form A5] | X (X = suspension) |
| CCNCCc1ccc(CN(CC)c2cc(OC)ccc2[C@@H]2CCc3cc(O)ccc3C2)cc1.Cl.Cl [Form A6] | X (X = suspension) |
| CCNCCc1ccc(CN(CC)c2cc(OC)ccc2[C@@H]2CCc3cc(O)ccc3C2)cc1.Cl.Cl [Form A7] | X (X = suspension) |
| CCNCCc1ccc(CN(CC)c2cc(OC)ccc2[C@@H]2CCc3cc(O)ccc3C2)cc1.Cl.Cl [Form A8] | X (X = suspension) |

Same assay, conditions: 40 vol. solvent (solvent per sample ID)

| Structure (SMILES) | Solubility observation at 40 vol. |
| --- | --- |
| CCNCCc1ccc(CN(CC)c2cc(OC)ccc2[C@@H]2CCc3cc(O)ccc3C2)cc1.Cl.Cl [Form A1] | X (X = suspension) |
| CCNCCc1ccc(CN(CC)c2cc(OC)ccc2[C@@H]2CCc3cc(O)ccc3C2)cc1.Cl.Cl [Form A2] | X (X = suspension) |
| CCNCCc1ccc(CN(CC)c2cc(OC)ccc2[C@@H]2CCc3cc(O)ccc3C2)cc1.Cl.Cl [Form A3] | X (X = suspension) |
| CCNCCc1ccc(CN(CC)c2cc(OC)ccc2[C@@H]2CCc3cc(O)ccc3C2)cc1.Cl.Cl [Form A4] | X (X = suspension) |
| CCNCCc1ccc(CN(CC)c2cc(OC)ccc2[C@@H]2CCc3cc(O)ccc3C2)cc1.Cl.Cl [Form A5] | X (X = suspension) |
| CCNCCc1ccc(CN(CC)c2cc(OC)ccc2[C@@H]2CCc3cc(O)ccc3C2)cc1.Cl.Cl [Form A6] | X (X = suspension) |
| CCNCCc1ccc(CN(CC)c2cc(OC)ccc2[C@@H]2CCc3cc(O)ccc3C2)cc1.Cl.Cl [Form A7] | X (X = suspension) |
| CCNCCc1ccc(CN(CC)c2cc(OC)ccc2[C@@H]2CCc3cc(O)ccc3C2)cc1.Cl.Cl [Form A8] | X (X = suspension) |

Same assay, conditions: 60 vol. solvent (solvent per sample ID)

| Structure (SMILES) | Solubility observation at 60 vol. |
| --- | --- |
| CCNCCc1ccc(CN(CC)c2cc(OC)ccc2[C@@H]2CCc3cc(O)ccc3C2)cc1.Cl.Cl [Form A1] | X (X = suspension) |
| CCNCCc1ccc(CN(CC)c2cc(OC)ccc2[C@@H]2CCc3cc(O)ccc3C2)cc1.Cl.Cl [Form A2] | X (X = suspension) |
| CCNCCc1ccc(CN(CC)c2cc(OC)ccc2[C@@H]2CCc3cc(O)ccc3C2)cc1.Cl.Cl [Form A3] | X (X = suspension) |
| CCNCCc1ccc(CN(CC)c2cc(OC)ccc2[C@@H]2CCc3cc(O)ccc3C2)cc1.Cl.Cl [Form A4] | X (X = suspension) |
| CCNCCc1ccc(CN(CC)c2cc(OC)ccc2[C@@H]2CCc3cc(O)ccc3C2)cc1.Cl.Cl [Form A5] | X (X = suspension) |
| CCNCCc1ccc(CN(CC)c2cc(OC)ccc2[C@@H]2CCc3cc(O)ccc3C2)cc1.Cl.Cl [Form A6] | X (X = suspension) |
| CCNCCc1ccc(CN(CC)c2cc(OC)ccc2[C@@H]2CCc3cc(O)ccc3C2)cc1.Cl.Cl [Form A7] | X (X = suspension) |
| CCNCCc1ccc(CN(CC)c2cc(OC)ccc2[C@@H]2CCc3cc(O)ccc3C2)cc1.Cl.Cl [Form A8] | X (X = suspension) |

Same assay, conditions: solid recovered after maturation, cooling or evaporation

| Structure (SMILES) | XRPD of recovered solid (form) |
| --- | --- |
| CCNCCc1ccc(CN(CC)c2cc(OC)ccc2[C@@H]2CCc3cc(O)ccc3C2)cc1.Cl.Cl [Form A1] | Form 1 |
| CCNCCc1ccc(CN(CC)c2cc(OC)ccc2[C@@H]2CCc3cc(O)ccc3C2)cc1.Cl.Cl [Form A2] | Form 1 |
| CCNCCc1ccc(CN(CC)c2cc(OC)ccc2[C@@H]2CCc3cc(O)ccc3C2)cc1.Cl.Cl [Form A3] | Form 1 |
| CCNCCc1ccc(CN(CC)c2cc(OC)ccc2[C@@H]2CCc3cc(O)ccc3C2)cc1.Cl.Cl [Form A4] | Form 1 |
| CCNCCc1ccc(CN(CC)c2cc(OC)ccc2[C@@H]2CCc3cc(O)ccc3C2)cc1.Cl.Cl [Form A5] | Form 1 |
| CCNCCc1ccc(CN(CC)c2cc(OC)ccc2[C@@H]2CCc3cc(O)ccc3C2)cc1.Cl.Cl [Form A6] | Form 3* |
| CCNCCc1ccc(CN(CC)c2cc(OC)ccc2[C@@H]2CCc3cc(O)ccc3C2)cc1.Cl.Cl [Form A7] | Form 1* |
| CCNCCc1ccc(CN(CC)c2cc(OC)ccc2[C@@H]2CCc3cc(O)ccc3C2)cc1.Cl.Cl [Form A8] | Form 1 |
